According to ChEMBL document CHEMBL3286108, “Novel arylsulfonamide derivatives with 5-HT₆/5-HT₇ receptor antagonism targeting behavioral and psychological symptoms of dementia” (J Med Chem, 2014):
Calls of active or inactive are those of the source. The calls are words filed in the database; no cut-off is given here.

How the values were obtained:
[1] = target: Muscarinic acetylcholine receptor M5 (Homo sapiens, UniProt P08912); assay: Displacement of [3H]4-DAMP from human recombinant M5 receptor expressed in CHO cells; assay type: cell-based
[2] = target: 5-hydroxytryptamine receptor 2C (Homo sapiens, UniProt P28335); assay: biochemical
[3] = target: T1, 5-hydroxytryptamine receptor 7 (Homo sapiens, UniProt P34969); assay: biochemical; assay type: cell-based, CHO-K1
[4] = target: T2, 5-hydroxytryptamine receptor 2A (Homo sapiens, UniProt P28223); assay: biochemical; assay type: cell-based, CHO-K1
[5] = target: T1, 5-hydroxytryptamine receptor 7; assay: Agonist activity at human 5-HT7 receptor expressed in CHO-K1 cells assessed as cAMP accumulation after 60 mins by TR-FRET immunoassay; assay type: functional, cell-based
[6] = target: T3, 5-hydroxytryptamine receptor 6 (Homo sapiens, UniProt P50406); assay: Agonist activity at human recombinant 5-HT6 receptor expressed in CHO-K1 cells by luminescence analysis; assay type: cell-based
[7] = target: T3, 5-hydroxytryptamine receptor 6; assay: Antagonist activity at human recombinant 5-HT6 receptor expressed in CHO-K1 cells assessed as inhibition of serotonin-induced response treated 15 to 30 mins before agonist challenge by luminescence analysis; assay type: cell-based
D(2) dopamine receptor [8] = target: T4, D(2) dopamine receptor (Homo sapiens, UniProt P14416); assay: biochemical
[9] = target: hERG (KCNH2) potassium channel (Homo sapiens, UniProt Q12809); assay: in vitro; conditions: CHO cells expressing human cloned ERG
[10] = target: T1, 5-hydroxytryptamine receptor 7; assay: Antagonist activity at human 5-HT7 receptor expressed in CHO-K1 cells assessed as inhibition of serotonin-induced cAMP accumulation after 60 mins by TR-FRET immunoassay; assay type: functional, cell-based
[11] = target: T3, 5-hydroxytryptamine receptor 6; assay: biochemical
[12] = target: T2, 5-hydroxytryptamine receptor 2A; assay: Agonist activity at human recombinant 5-HT2A receptor expressed in CHO-K1 cells by luminescence analysis; assay type: cell-based
[13] = target: T5, Muscarinic acetylcholine receptor M1 (Homo sapiens) (UniProt P11229); assay: Displacement of [3H]pirenzepine from human recombinant M1 receptor expressed in CHO cells at 1 uM; assay type: cell-based
T5 sequence (whole entry): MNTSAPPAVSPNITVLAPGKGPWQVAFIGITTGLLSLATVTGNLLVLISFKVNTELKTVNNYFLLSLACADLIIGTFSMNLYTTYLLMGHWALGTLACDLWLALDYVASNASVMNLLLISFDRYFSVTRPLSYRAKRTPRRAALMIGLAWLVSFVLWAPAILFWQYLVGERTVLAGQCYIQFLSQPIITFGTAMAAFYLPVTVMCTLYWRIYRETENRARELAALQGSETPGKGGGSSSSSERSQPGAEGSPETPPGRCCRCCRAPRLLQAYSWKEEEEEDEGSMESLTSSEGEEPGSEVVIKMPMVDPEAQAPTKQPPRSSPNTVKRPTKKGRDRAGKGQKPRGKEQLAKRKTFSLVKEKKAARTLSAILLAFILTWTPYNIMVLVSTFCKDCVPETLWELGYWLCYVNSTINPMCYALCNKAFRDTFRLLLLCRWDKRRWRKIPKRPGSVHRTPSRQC

D(2) dopamine receptor [14] = target: T4, D(2) dopamine receptor; assay: Agonist activity at human recombinant D2 receptor expressed in CHO-K1 cells by luminescence analysis; assay type: cell-based
[15] = target: T2, 5-hydroxytryptamine receptor 2A; assay: Antagonist activity at human recombinant 5-HT2A receptor expressed in CHO-K1 cells assessed as inhibition of alpha-methyl serotonin-induced response treated 15 to 30 mins before agonist challenge by luminescence analysis; assay type: cell-based
Rattus norvegicus [16] = assay: Antidepressant-like activity in Wistar rat assessed as decrease in immobility time at 0.3 to 3 mg/kg, po after 60 mins by forced swimming test; assay type: functional; conditions: dose mg/kg 0.3-3
[17] = target: T1, 5-hydroxytryptamine receptor 7; assay: biochemical
[18] = target: Alpha-1A adrenergic receptor (Homo sapiens, UniProt P35348); assay: biochemical
[19] = target: Muscarinic acetylcholine receptor M2 (Homo sapiens, UniProt P08172); assay: biochemical
[20] = target: T2, 5-hydroxytryptamine receptor 2A; assay: biochemical
[21] = target: T3, 5-hydroxytryptamine receptor 6; assay: biochemical; remark: listed apart in the source
[22] = target: 5-hydroxytryptamine receptor 1A (Homo sapiens, UniProt P08908); assay: biochemical
[23] = target: Muscarinic acetylcholine receptor M4 (Homo sapiens) (UniProt P08173); assay: Displacement of [3H]4-DAMP from human recombinant M4 receptor expressed in CHO cells at 1 uM; assay type: cell-based
Histamine H1 receptor = Histamine H1 receptor (Homo sapiens, UniProt P35367); assay: biochemical; assay type: cell-based, HEK293
D(4) dopamine receptor = D(4) dopamine receptor (Homo sapiens, UniProt P21917); assay: Displacement of [3H]methylspiperone from human recombinant D4 receptor expressed in CHO cells; assay type: cell-based
Rattus norvegicus [24] = assay: Toxicity in Wistar rat assessed as spontaneous locomotor activity up to 100 mg/kg, po measured after 15 mins; assay type: organism-based; set-up: dose 100 mg/kg, route oral; conditions: in vivo, 0.25 h
Rattus norvegicus [25] = assay: Antipsychotic-like activity in po dosed Wistar rat assessed as inhibition of MK-801-induced hyperlocomotion administered 45 mins prior to MK-801 challenge measured 60 mins post-drug administration; assay type: functional; conditions: read-out: MED
D(2) dopamine receptor [26] = target: T4, D(2) dopamine receptor; assay: biochemical; remark: listed apart in the source
D(1A) dopamine receptor = D(1A) dopamine receptor (Homo sapiens, UniProt P21728); assay: biochemical
[27] = target: Muscarinic acetylcholine receptor M5 (Homo sapiens) (UniProt P08912); conditions: CHO, 1 uM
[28] = target: T3, 5-hydroxytryptamine receptor 6
D(3) dopamine receptor = D(3) dopamine receptor (Homo sapiens, UniProt P35462); assay: Displacement of [3H]methylspiperone from human recombinant D3 receptor expressed in CHO cells; assay type: cell-based
[29] = target: Muscarinic acetylcholine receptor M1 (Homo sapiens, UniProt P11229); assay: biochemical; assay type: cell-based, CHO
[30] = target: T6, Muscarinic acetylcholine receptor M3 (Homo sapiens, UniProt P20309); assay: biochemical
Target sequence in this assay (P20309 whole entry): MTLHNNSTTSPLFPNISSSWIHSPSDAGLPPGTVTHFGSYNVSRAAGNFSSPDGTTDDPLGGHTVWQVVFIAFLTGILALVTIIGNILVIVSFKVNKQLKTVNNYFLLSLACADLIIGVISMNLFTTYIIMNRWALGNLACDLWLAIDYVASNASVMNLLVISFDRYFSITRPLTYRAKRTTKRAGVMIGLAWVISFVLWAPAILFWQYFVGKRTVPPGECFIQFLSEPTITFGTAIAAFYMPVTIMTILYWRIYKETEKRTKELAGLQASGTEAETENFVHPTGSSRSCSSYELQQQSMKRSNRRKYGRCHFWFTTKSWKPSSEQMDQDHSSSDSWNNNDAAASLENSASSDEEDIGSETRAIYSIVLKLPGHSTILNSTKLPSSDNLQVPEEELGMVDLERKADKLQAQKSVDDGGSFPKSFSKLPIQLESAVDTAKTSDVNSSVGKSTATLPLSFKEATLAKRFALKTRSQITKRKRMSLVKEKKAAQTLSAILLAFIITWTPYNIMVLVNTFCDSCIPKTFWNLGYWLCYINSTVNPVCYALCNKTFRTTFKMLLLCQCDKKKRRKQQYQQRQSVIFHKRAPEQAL

Rattus norvegicus [31] = assay: Induction of catalepsy in Wistar rat up to 100 mg/kg, po by bar test; assay type: organism-based; set-up: dose 100 mg/kg, route oral; conditions: in vivo
[32] = target: T2, 5-hydroxytryptamine receptor 2A; assay: Antagonist activity at human recombinant 5-HT2A receptor assessed as inhibition of serotonin-induced inositol phosphate accumulation; assay type: functional
[33] = target: Muscarinic acetylcholine receptor M2 (Homo sapiens) (UniProt P08172); assay: Displacement of [3H]AF-DX384 from human recombinant M2 receptor expressed in CHO cells at 1 uM; assay type: cell-based
[34] = target: Alpha-1A adrenergic receptor (Homo sapiens) (UniProt P35348); assay: Antagonist activity at human recombinant alpha1A adrenoceptor assessed as inhibition of epinephrine-induced intracellular Ca2+ release; assay type: functional, cell-based
Rattus norvegicus [35] = assay: Antipsychotic-like activity in po dosed Wistar rat assessed as inhibition of DOI-induced head twitches measured after 60 mins; assay type: functional; conditions: 1 h, read-out: MED
[36] = target: Sodium-dependent serotonin transporter (Homo sapiens, UniProt P31645); assay: biochemical
[37] = target: Alpha-2C adrenergic receptor (Homo sapiens, UniProt P18825); assay: biochemical
[38] = target: T6, Muscarinic acetylcholine receptor M3; conditions: CHO, 1 uM
Target sequence in this assay (P20309 whole entry, looked up): as the sequence (P20309 whole entry) above

[39] = target: Muscarinic acetylcholine receptor M4 (Homo sapiens, UniProt P08173); assay: biochemical

T1 sequence (P34969 whole entry): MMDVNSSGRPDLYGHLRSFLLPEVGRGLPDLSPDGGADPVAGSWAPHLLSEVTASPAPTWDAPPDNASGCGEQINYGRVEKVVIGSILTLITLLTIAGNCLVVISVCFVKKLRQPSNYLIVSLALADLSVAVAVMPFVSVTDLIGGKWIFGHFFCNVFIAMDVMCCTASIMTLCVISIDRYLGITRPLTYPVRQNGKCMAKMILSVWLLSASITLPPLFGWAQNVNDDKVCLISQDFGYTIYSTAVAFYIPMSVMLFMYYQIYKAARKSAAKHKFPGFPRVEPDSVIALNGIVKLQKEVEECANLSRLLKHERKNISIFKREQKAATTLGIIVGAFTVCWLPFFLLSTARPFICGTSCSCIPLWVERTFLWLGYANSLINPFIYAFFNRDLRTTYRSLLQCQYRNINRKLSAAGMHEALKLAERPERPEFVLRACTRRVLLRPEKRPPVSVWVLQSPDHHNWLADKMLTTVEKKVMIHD
T3 sequence (P50406 whole entry): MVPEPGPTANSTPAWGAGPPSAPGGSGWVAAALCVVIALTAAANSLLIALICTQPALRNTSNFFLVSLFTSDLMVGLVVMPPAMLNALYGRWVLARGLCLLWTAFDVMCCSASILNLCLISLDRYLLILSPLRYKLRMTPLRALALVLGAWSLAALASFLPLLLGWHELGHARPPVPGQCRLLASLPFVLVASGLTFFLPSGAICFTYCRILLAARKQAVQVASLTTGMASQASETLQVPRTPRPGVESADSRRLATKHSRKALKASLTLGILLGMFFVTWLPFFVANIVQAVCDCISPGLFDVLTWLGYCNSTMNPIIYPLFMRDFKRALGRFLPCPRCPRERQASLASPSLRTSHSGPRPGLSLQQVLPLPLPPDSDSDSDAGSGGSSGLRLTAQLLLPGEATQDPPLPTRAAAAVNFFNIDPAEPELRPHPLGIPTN
T4 sequence (P14416 whole entry): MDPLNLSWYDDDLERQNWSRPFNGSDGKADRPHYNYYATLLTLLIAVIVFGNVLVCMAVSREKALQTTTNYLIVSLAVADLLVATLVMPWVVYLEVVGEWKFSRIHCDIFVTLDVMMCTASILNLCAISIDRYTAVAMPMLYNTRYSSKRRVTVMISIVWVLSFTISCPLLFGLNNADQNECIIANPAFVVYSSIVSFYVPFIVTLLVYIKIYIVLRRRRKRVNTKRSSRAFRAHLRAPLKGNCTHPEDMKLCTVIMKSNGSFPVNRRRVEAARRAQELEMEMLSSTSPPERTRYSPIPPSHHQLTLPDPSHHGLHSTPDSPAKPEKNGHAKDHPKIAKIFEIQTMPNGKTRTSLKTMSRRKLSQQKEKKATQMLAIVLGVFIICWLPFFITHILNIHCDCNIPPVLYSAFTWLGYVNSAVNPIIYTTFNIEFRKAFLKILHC
T2 sequence (P28223 whole entry): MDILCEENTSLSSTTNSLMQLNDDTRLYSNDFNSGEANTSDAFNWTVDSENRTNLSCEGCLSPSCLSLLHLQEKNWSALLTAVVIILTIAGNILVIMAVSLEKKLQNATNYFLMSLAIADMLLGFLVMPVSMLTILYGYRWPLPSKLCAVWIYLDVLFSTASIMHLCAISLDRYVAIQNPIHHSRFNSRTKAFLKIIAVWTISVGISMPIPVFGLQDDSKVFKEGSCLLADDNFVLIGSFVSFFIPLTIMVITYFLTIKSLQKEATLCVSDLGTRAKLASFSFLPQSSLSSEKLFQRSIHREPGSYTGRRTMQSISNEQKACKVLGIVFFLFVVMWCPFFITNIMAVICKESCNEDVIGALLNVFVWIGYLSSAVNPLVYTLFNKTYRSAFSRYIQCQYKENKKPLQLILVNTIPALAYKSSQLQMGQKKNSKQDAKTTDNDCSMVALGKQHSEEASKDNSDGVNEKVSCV
Sequence of Muscarinic acetylcholine receptor M5 (P08912 whole entry): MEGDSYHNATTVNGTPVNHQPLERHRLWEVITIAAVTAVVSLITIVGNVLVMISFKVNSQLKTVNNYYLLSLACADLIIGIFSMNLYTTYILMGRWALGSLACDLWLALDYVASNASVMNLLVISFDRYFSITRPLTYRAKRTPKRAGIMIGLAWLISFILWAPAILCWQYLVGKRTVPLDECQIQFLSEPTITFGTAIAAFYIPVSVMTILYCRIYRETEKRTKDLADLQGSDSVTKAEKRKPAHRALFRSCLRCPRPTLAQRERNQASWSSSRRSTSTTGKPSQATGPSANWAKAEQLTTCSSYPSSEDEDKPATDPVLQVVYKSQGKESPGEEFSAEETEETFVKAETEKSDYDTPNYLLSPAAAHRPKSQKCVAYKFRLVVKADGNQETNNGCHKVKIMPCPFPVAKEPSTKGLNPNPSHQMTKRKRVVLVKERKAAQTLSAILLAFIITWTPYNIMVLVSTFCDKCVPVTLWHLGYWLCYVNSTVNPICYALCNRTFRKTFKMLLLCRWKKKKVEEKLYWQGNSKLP
Sequence of hERG (KCNH2) potassium channel (Q12809 whole entry): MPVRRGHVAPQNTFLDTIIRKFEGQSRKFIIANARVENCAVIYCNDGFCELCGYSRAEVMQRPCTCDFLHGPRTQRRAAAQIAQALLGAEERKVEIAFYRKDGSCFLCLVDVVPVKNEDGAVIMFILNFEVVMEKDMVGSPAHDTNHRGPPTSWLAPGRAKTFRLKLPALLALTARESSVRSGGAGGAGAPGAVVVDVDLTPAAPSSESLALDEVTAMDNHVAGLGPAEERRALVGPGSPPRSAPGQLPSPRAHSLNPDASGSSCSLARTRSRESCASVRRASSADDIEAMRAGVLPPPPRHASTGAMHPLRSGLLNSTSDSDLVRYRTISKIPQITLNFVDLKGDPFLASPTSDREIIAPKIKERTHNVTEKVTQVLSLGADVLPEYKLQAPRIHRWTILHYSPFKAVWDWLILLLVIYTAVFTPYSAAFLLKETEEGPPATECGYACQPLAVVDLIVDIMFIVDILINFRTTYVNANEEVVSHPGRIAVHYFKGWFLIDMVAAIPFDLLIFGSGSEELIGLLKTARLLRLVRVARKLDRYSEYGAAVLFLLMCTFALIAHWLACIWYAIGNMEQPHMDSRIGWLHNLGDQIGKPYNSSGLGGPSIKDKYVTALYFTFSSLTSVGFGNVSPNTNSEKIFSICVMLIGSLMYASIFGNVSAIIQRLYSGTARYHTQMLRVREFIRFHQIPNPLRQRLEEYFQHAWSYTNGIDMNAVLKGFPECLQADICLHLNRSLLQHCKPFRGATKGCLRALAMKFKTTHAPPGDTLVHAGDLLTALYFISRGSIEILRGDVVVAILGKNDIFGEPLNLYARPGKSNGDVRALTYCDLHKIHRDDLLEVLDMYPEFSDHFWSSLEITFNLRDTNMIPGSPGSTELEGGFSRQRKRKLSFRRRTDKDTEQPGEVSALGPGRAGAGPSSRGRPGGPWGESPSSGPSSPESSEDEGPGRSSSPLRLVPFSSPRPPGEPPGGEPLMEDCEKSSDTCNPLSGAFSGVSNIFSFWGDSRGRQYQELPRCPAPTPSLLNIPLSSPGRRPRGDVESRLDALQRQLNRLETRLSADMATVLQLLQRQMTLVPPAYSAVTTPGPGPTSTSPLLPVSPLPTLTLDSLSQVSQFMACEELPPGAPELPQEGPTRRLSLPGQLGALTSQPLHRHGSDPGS
Sequence of 5-hydroxytryptamine receptor 2C (P28335 whole entry): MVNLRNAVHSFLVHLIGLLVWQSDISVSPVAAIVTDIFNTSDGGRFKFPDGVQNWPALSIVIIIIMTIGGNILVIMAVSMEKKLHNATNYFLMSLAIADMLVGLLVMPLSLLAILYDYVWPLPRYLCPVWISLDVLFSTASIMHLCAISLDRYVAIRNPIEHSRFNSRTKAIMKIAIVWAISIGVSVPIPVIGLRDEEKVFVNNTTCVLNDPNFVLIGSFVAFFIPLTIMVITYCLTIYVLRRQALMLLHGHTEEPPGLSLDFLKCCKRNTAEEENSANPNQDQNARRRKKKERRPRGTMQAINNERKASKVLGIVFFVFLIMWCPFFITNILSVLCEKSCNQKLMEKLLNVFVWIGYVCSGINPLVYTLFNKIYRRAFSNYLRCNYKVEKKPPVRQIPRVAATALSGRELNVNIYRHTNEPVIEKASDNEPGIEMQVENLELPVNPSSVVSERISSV
Sequence of Muscarinic acetylcholine receptor M5 (Homo sapiens) (P08912 whole entry): as the sequence (P08912 whole entry) above

For C[N+]1(C)CCC(OC(=O)C(c2ccccc2)c2ccccc2)CC1 [4-DAMP], the Ki [1] was 0.48 nM.
With COc1cc(OC)c(C(=O)CCCCN2CCC3(CC2)NC(=O)NC3=O)cc1NS(=O)(=O)c1ccc(C(F)(F)F)cc1 [RS-102,221] the Ki [2] was 0.6 nM.
For Cc1c(S(=O)(=O)NCCCCN2CCC(c3noc4cc(F)ccc34)CC2)sc2ccc(F)cc12, the Ki [3] was 0.2 nM, the Ki [4] was 0.7 nM and the Activity [5] was “inactive”. For the same molecule, the Activity [6] was “inactive”, the Kb [7] was 14 nM and the Ki (D(2) dopamine receptor [8]) was 1.9 nM. It also gave an inhibition at 1 µM [9] of 14%, a Kb [10] of 2.2 nM and a Ki [11] of 3.4 nM. For the same molecule, the Activity [12] was “inactive”, the inhibition [13] was 22% and the Activity (D(2) dopamine receptor [14]) was “inactive”. For the same molecule, the Kb [15] was 5 nM.
O=S(=O)(NCCCCN1CCC(c2noc3cc(F)ccc23)CC1)c1cc2ccccc2s1 was tested, and the Ki [3] was 1.6 nM, the “inhibition (INH)” value (Rattus norvegicus [16]) was 20% and the Ki [17] was 1.9 nM. It also gave a Ki [18] of 0.8 nM, a Ki [19] greater than 1000 nM and a Ki [20] of 0.5 nM. For the same molecule, the Ki [4] was 0.6 nM, the Ki [2] was 540 nM and the Ki [21] was 4.1 nM. For the same molecule, the Ki [22] was 110 nM, the inhibition [23] was less than 40% and the Activity [5] was “inactive”. The Ki (Histamine H1 receptor) was 69 nM, the Ki (D(4) dopamine receptor) was 14 nM and the Activity (Rattus norvegicus [24]) was “Non-toxic”. For the same molecule, the minimal effective dose (Rattus norvegicus [25]) was 10 mg/kg, the Ki (D(2) dopamine receptor [26]) was 1.8 nM and the Ki (D(1A) dopamine receptor) was 3.3 nM. It also gave an inhibition [27] of less than 40%, a Kb [28] of 16 nM and a Ki (D(3) dopamine receptor) of 1.1 nM. For the same molecule, the Ki [29] was greater than 1000 nM, the Activity [6] was “inactive” and the Kb [7] was 9.9 nM. It also gave a Ki [30] greater than 1000 nM, a Ki (D(2) dopamine receptor [8]) of 2 nM and a Kb [10] of 7.8 nM. For the same molecule, the Ki [1] was greater than 1000 nM, the Activity (Rattus norvegicus [31]) was “Non-toxic” and the Ki [11] was 6.5 nM. For the same molecule, the Kb [32] was 4.8 nM, the inhibition [33] was less than 40% and the Activity [12] was “inactive”. The Kb [34] was 1.8 nM, the minimal effective dose (Rattus norvegicus [35]) was 3 mg/kg and the IC50 [36] was greater than 1000 nM. It also gave an inhibition [13] of 21%, a Ki [37] of 1.9 nM and an inhibition [38] of less than 40%. The Activity (D(2) dopamine receptor [14]) was “inactive”, the Ki [39] was greater than 1000 nM and the Kb [15] was 8.8 nM.
Cc1c(S(=O)(=O)NCCCCN2CCC(c3noc4cc(F)ccc34)CC2)sc2ccc(Cl)cc12 was tested, and the Ki [3] was 0.7 nM, the Ki [4] was 1 nM and the Activity [5] was “inactive”. For the same molecule, the Activity [6] was “inactive”, the Kb [7] was 22 nM and the Ki (D(2) dopamine receptor [8]) was 1.5 nM. It also gave an inhibition at 1 µM [9] of 0%, a Kb [10] of 5.6 nM and a Ki [11] of 1.8 nM. The Activity [12] was “inactive”, the inhibition [13] was 19% and the Activity (D(2) dopamine receptor [14]) was “inactive”. The Kb [15] was 9.5 nM.
